The values below are quoted from earlier work in PMC9923514 (Journal of chemical information and modeling, 2022).

The term IC50 denotes the point on the concentration scale where inhibition reaches its midpoint.

One data set has as its target ZIKV NS5 RdRp (Zika virus, UniProt A0A024B7W1). As to conditions: for IC50: read-out: NS5 RdRp IC50.
Another data set deals with ZIKV NS2B-NS3pro (Zika virus, UniProt A0A024B7W1). Conditions: read-out: NS2B-NS3pro IC50; allosteric inhibitor.
Sequence of ZIKV NS2B-NS3pro (A0A024B7W1 1503-1680): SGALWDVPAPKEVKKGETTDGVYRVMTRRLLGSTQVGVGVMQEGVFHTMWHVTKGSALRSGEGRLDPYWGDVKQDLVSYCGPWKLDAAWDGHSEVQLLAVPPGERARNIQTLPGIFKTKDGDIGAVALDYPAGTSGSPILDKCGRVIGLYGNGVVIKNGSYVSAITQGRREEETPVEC
Sequence of ZIKV NS2B-NS3pro (A0A024B7W1 1373-1502): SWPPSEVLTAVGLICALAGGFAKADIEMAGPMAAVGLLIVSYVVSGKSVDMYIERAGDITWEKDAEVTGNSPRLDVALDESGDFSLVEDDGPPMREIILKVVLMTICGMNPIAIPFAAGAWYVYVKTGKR

Sequence of ZIKV NS5 RdRp (A0A024B7W1 2521-3423): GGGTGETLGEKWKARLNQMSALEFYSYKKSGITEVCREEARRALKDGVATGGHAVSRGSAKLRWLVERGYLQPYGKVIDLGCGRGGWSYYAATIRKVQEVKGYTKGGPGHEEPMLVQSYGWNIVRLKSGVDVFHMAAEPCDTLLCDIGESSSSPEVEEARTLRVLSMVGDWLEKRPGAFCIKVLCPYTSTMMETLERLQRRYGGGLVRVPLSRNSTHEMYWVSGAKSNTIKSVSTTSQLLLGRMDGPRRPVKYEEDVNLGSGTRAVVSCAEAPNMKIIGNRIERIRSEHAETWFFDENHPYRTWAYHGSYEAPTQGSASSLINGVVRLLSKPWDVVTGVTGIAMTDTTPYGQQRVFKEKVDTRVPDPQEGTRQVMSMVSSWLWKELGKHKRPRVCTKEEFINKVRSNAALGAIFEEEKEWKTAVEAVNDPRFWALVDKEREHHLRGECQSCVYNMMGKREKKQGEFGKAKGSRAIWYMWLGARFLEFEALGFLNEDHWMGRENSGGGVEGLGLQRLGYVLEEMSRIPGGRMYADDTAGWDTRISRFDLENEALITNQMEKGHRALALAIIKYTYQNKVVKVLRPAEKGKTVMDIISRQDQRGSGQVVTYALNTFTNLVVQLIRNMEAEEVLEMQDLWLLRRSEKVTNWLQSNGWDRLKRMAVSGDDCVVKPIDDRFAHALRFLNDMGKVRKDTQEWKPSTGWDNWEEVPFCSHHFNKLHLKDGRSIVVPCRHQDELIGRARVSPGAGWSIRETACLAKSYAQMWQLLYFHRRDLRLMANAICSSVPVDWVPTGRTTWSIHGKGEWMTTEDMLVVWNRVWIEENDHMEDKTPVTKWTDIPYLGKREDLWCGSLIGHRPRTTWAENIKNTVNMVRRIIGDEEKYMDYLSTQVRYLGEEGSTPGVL

For the molecule `O[C@H]1[C@H]2c3cc4c(cc3CN3CCC(=C[C@@H]1O)[C@H]23)OCO4` [lycorine], the “NS5 RdRp inhibition” value on ZIKV NS5 RdRp (at 50 μM) was 60%.
For `CCCCCOCc1c(Nc2ccc(S(N)(=O)=O)cc2)nc(N2CCOCC2)nc1C(=O)NCCOc1ccccc1` [2-morpholino-5-((pentyloxy)methyl)-N-(2-phenoxyethyl)-6-((4-sulfamoylphenyl)amino)pyrimidine-4-carboxamide], the IC50 at ZIKV NS5 RdRp was 2400 nM.
With `O=C(NC(=S)Nc1ccc(N2CCN(C(=O)c3cccs3)CC2)cc1)c1sc2ccccc2c1Cl` [TBP, 3-chloro-N-[({4-[4-(2-thienylcarbonyl)-1-piperazinyl]phenyl}amino)carbonothioyl]-1-benzothiophene-2-carboxamide], the IC50 on ZIKV NS5 RdRp was 94 nM.
Consider `Nc1cc(N)c(N=Nc2ccc(S(=O)(=O)Nc3nccs3)cc2)cc1N=Nc1ccc(S(=O)(=O)Nc2nccs2)cc1` [NSC86314], for which the IC50 on ZIKV NS2B-NS3pro is 1120 ± 110 nM.
